{"source": "paper PMC7367283", "about": "“A PIP2 substitute mediates voltage sensor-pore coupling in KCNQ activation” (Communications Biology, 2020)", "key": {"[1]": {"tested_on": "guinea pig ventricular myocytes", "assay": "Action potential recording in ventricular myocytes with normal action potentials", "type": "cell-based", "set-up": "actional potential duration (APD), Fig. 7h: unit not given here", "details": "for actional potential duration (APD), Fig. 7h: Control-Group, individual cells", "procedure": "Fig. 7 Effects of CP1 on IKs and action potentials in cardiomyocytes. a IKs currents in guinea pig ventricular myocytes in the absence and presence of 30 µM CP1 in the whole-cell patch-clamp configuration. Holding potential: −40 mV; testing potentials: −20 to +60 mV with 10-mV increment; returning potential: −20 mV. […] Guinea pig ventricular myocytes were first perfused with 10 µM CP1 and 10 µM chromanol. After APD reached steady state, 10 µM CP1 was constitutively perfused alone. Last, CP1 was washed out for near-full reversal of APD shortening. g Effects of 0.2 µM CP1 on LQT action potentials. To mimic the LQT, 100 µM moxifloxacin was applied 2 h before the treatment of CP1. h Change of action potential duration after application of different [CP1]s (n = 5–7). Tukey–Kramer ANOVA test was used to compare control cells in different CP1 concentration, # is significant at P < 0.05. Unpaired two-tailed Student t tests were used to compare control and moxifloxacin cells at different CP1 concentration: * is significant at P < 0.05.\nIn ventricular myocytes, the duration and the morphology of action potentials are determined by various ion channels. Mutations in many of these channels and drugs that modify channel functions, such as an increase in inward Na^+ currents or decrease in outward K^+ currents, may lead to a prolonged action potential duration, which results in an inherited or acquired long QT syndrome that predisposes afflicted patients to cardiac arrhythmia. An enhancement of the outward IKs current may be able to counter these mutations or drug effects, and restore the action potential duration to more normal values. […] Next, we used an IKr blocker (Moxifloxacin, Moxi) to prolong action potentials and then applied various concentrations of CP1.\nThe use of guinea pigs was approved by the Stony Brook University Institutional Animal Care and Use Committee. Single ventricular myocytes were acutely enzymatically isolated from guinea pig heart as previously described. Guinea pigs, weighing 300–500 g, were sacrificed by peritoneal injection of sodium pentobarbitone (1 ml, 390 mg/ml). The isolated cells were stored in KB solution containing (in mM) 83 KCl, 30 K2HPO4, 5 MgSO4, 5 Na pyruvate, 5 β-OH-butyric acid, 20 creatine, 20 taurine, 10 glucose, and 0.5 EGTA, pH 7.2.\nAction potentials were recorded with whole-cell patch-clamp recording techniques. Current-clamp configuration was used. Freshly isolated guinea pig cardiac myocytes were placed at 1 Hz with a stimulus of 180-pA amplitude and 10-mS duration. The APD was determined at 90% repolarization. Several minutes were allowed for the APD to reach steady state before data were collected. Typical Tyrode mimic AP Solution for action potential recording was used. The bath solution is composed of (in mM) 140 NaCl, 3 KCl, 1 MgCl2, 1.8 CaCl2, 10 HEPES, and 10 Glucose, pH 7.4. The pipette solution is composed of (in mM) 115 K-aspartic acid, 35 KOH, 3 MgCl2, 10 HEPES, 11 EGTA, 5 Glucose, and 3 MgATP, pH 7.4."}, "NaV1.5": {"biological_target": "NaV1.5 (Homo sapiens, UniProt Q14524)", "sequence (Q14524 whole entry)": "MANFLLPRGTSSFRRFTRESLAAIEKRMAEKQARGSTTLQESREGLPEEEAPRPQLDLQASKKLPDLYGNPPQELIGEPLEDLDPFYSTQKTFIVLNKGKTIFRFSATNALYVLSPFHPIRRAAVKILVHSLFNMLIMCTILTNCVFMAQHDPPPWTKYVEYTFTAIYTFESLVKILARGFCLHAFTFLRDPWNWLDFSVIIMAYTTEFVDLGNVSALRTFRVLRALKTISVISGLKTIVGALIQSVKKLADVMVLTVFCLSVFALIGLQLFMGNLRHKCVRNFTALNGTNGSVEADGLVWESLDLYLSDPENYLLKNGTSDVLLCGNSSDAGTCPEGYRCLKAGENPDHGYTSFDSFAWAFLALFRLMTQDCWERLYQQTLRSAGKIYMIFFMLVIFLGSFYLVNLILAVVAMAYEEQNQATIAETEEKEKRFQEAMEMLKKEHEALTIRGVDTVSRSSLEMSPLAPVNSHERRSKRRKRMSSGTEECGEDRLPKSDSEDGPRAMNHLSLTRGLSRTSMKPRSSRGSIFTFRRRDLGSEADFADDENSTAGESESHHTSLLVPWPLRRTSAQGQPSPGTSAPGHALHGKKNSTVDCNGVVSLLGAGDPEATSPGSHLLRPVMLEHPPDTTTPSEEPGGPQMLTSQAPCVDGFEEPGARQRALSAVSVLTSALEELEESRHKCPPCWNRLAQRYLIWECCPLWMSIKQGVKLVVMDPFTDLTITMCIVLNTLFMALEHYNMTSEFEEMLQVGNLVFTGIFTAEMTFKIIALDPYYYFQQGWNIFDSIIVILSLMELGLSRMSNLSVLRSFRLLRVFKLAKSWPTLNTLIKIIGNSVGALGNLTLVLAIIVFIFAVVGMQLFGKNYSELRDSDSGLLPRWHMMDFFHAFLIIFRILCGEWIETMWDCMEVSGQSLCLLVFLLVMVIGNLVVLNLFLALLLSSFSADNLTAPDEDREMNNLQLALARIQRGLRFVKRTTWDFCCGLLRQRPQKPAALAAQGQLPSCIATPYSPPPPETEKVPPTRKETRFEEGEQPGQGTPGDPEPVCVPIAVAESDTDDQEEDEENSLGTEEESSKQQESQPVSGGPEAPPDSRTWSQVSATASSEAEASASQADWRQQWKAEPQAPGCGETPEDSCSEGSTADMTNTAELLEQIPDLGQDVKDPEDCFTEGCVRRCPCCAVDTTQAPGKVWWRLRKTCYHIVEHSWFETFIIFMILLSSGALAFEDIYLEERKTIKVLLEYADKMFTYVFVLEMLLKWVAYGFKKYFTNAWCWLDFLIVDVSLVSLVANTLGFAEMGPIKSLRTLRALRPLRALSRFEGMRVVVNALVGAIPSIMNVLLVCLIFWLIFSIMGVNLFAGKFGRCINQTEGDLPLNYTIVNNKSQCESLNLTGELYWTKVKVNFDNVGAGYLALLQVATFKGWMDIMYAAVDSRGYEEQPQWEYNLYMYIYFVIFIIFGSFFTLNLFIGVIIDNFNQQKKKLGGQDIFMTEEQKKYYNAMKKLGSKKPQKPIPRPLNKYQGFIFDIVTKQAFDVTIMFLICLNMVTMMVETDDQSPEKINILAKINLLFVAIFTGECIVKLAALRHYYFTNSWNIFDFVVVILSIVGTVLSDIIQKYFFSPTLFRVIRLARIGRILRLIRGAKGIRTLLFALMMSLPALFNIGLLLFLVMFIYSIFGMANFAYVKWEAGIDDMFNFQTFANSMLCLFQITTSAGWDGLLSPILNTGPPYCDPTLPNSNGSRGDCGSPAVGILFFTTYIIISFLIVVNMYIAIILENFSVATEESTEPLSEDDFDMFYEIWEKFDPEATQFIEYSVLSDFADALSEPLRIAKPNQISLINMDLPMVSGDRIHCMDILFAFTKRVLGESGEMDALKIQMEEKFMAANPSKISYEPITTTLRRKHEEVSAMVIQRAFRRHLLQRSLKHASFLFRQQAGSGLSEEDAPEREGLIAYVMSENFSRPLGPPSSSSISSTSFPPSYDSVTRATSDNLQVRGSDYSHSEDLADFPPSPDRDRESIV", "sequence (Q07699 19-218 partner)": "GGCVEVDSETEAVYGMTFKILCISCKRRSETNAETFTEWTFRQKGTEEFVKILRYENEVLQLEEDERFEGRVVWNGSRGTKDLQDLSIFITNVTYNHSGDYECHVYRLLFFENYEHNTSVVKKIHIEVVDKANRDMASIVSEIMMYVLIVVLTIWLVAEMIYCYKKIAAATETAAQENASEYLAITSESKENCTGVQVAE", "assay": "Cut-open oocyte recording of NaV1.5", "type": "cell-based", "details": "10 µM CP1"}}, "note": "“And” between values parts separate entries of the source, which are not always exact repeats. Identical values can stand only once.", "data": [{"smiles": "O=S(=O)([O-])Oc1c(-c2sc3c(ccc4cccc(Cl)c43)c2OS(=O)(=O)[O-])[nH]c2ccc(Br)cc12.[Na+].[Na+]", "note": "[CP1, DISODIUM 5-BROMO-2-[9-CHLORO-3-(SULFONATOOXY) NAPHTHO [1,2-B] THIEN-2-YL]-1H-INDOL-3-YL SULFATE]", "values": [{"measurement": "action potential duration", "setting": "[1]; 0.2 µM CP1, control myocytes", "value": "did not alter action potential duration"}, {"measurement": "action potential duration (APD)", "setting": "[1]; 10 µM CP1 alone", "value": "significantly shortened"}, {"measurement": "action potential duration (APD)", "setting": "[1]; 10 µM CP1 perfused together with 10 µM chromanol 293B", "value": "not changed"}, {"measurement": "action potentials in control cells", "setting": "[1]; 0.6 and 6 µM CP1", "value": "shortened"}, {"measurement": "actional potential duration (APD), Fig. 7h", "setting": "[1]; 0.2 µM CP1", "value": "682 and 570 and 576 and 550 and 596 and 520"}, {"measurement": "actional potential duration (APD), Fig. 7h", "setting": "[1]; 0.6 µM CP1", "value": "473 and 609 and 463 and 428 and 542 and 511 and 475"}, {"measurement": "actional potential duration (APD), Fig. 7h", "setting": "[1]; 6 µM CP1", "value": "347 and 378 and 362 and 454"}, {"measurement": "G/Gmax Mean (Fig. 6d)", "setting": "NaV1.5; voltage -140 mV", "value": 0.0026}, {"measurement": "G/Gmax Mean (Fig. 6d)", "setting": "NaV1.5; voltage -160 mV", "value": 0.0055}]}]}
